Laboratory results taken from ChEMBL document CHEMBL1201862, “PubChem BioAssay data set” (2004).
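The compound was tested at five concentrations on cells cultured in 96-well plates, with a 48-hour exposure period. Abbreviation: GI50, concentration required for 50% inhibition of growth.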 The source made the active and inactive calls. Cut-off read from the data, not from the text of the source: active = GI50 up to about 1.1 µM and inactive = higher.

Columns and labels:
Test in all cases: inhibition of tumour cell growth, NCI panel, 48 h
OVCAR-4 = test system: OVCAR-4
HCC 2998 = test system: HCC 2998
MDA-MB-435 = test system: MDA-MB-435
PC-3 = test system: PC-3
SN12C = test system: SN12C
SF-539 = test system: SF-539
UO-31 = test system: UO-31
A549 = test system: A549
Hs-578T = test system: Hs-578T
NCI/ADR-RES = test system: NCI/ADR-RES
LOX IMVI = test system: LOX IMVI
ACHN = test system: ACHN
HT-29 = test system: HT-29
SR = test system: SR
DU-145 = test system: DU-145
COLO 205 = test system: COLO 205
EKVX = test system: EKVX
HL-60 = test system: HL-60
M14 = test system: M14
HOP-92 = test system: HOP-92
SF-268 = test system: SF-268
CCRF-CEM = test system: CCRF-CEM
SK-MEL-2 = test system: SK-MEL-2
SNB-19 = test system: SNB-19
SK-MEL-5 = test system: SK-MEL-5
OVCAR-3 = test system: OVCAR-3
NCI-H226 = test system: NCI-H226
A498 = test system: A498
SW-620 = test system: SW-620
HOP-62 = test system: HOP-62
BT-549 = test system: BT-549
KM12 = test system: KM12
HCT-116 = test system: HCT-116
RPMI-8226 = test system: RPMI-8226
786-0 = test system: 786-0
OVCAR-5 = test system: OVCAR-5
MCF7 = test system: MCF7
NCI-H460 = test system: NCI-H460
HCT-15 = test system: HCT-15
UACC-62 = test system: UACC-62
TK-10 = test system: TK-10
K562 = test system: K562
SK-OV-3 = test system: SK-OV-3
CAKI-1 = test system: CAKI-1
SNB-75 = test system: SNB-75
MOLT-4 = test system: MOLT-4
Malme-3M = test system: Malme-3M
T47D = test system: T47D
SK-MEL-28 = test system: SK-MEL-28
RXF 393 = test system: RXF 393
MDA-N = test system: MDA-N
IGROV-1 = test system: IGROV-1
NCI-H522 = test system: NCI-H522
MDA-MB-231 = test system: MDA-MB-231
UACC-257 = test system: UACC-257
NCI-H23 = test system: NCI-H23
SF-295 = test system: SF-295
OVCAR-8 = test system: OVCAR-8
U-251 = test system: U-251

Compound: CN(C)CCNC(=O)c1ccc(NCCCN(C)CCCNc2ccc(C(=O)NCCN(C)C)c3nc4ccc([N+](=O)[O-])cc4c(O)c23)c2c(O)c3cc([N+](=O)[O-])ccc3nc12
- GI50 (OVCAR-4): 0.127 µM (active)
- GI50 (HCC 2998): 0.0347 µM (active)
- GI50 (MDA-MB-435): 0.0861 µM (active)
- GI50 (PC-3): < 0.01 µM (active)
- GI50 (SN12C): < 0.01 µM (active)
- GI50 (SF-539): 0.0186 µM (active)
- GI50 (UO-31): 0.154 µM (active)
- GI50 (A549): < 0.01 µM (active)
- GI50 (Hs-578T): 0.0798 µM (active)
- GI50 (NCI/ADR-RES): 1.23 µM (inactive)
- GI50 (LOX IMVI): < 0.01 µM (active)
- GI50 (ACHN): < 0.0121 µM (active)
- GI50 (HT-29): < 0.0182 µM (active)
- GI50 (SR): 0.0311 µM (active)
- GI50 (DU-145): < 0.0272 µM (active)
- GI50 (COLO 205): < 0.0133 µM (active)
- GI50 (EKVX): 0.301 µM (active)
- GI50 (HL-60): 0.0277 µM (active)
- GI50 (M14): 0.5 µM (active)
- GI50 (HOP-92): 0.0431 µM (active)
- GI50 (SF-268): 0.065 µM (active)
- GI50 (CCRF-CEM): < 0.01 µM (active)
- GI50 (SK-MEL-2): 0.0111 µM (active)
- GI50 (SNB-19): < 0.0146 µM (active)
- GI50 (SK-MEL-5): 0.0346 µM (active)
- GI50 (OVCAR-3): 0.186 µM (active)
- GI50 (NCI-H226): < 0.01 µM (active)
- GI50 (A498): 0.116 µM (active)
- GI50 (SW-620): < 0.01 µM (active)
- GI50 (HOP-62): 0.154 µM (active)
- GI50 (BT-549): 0.447 µM (active)
- GI50 (KM12): 0.04 µM (active)
- GI50 (HCT-116): < 0.01 µM (active)
- GI50 (RPMI-8226): < 0.01 µM (active)
- GI50 (786-0): < 0.0197 µM (active)
- GI50 (OVCAR-5): 0.158 µM (active)
- GI50 (MCF7): < 0.01 µM (active)
- GI50 (NCI-H460): < 0.01 µM (active)
- GI50 (HCT-15): 0.368 µM
- GI50 (UACC-62): 0.0538 µM (active)
- GI50 (TK-10): 0.124 µM (active)
- GI50 (K562): 0.0135 µM (active)
- GI50 (SK-OV-3): 0.232 µM (active)
- GI50 (CAKI-1): 0.757 µM (active)
- GI50 (SNB-75): 0.14 µM (active)
- GI50 (MOLT-4): < 0.01 µM (active)
- GI50 (Malme-3M): 0.126 µM (active)
- GI50 (T47D): 0.32 µM (active)
- GI50 (SK-MEL-28): 0.157 µM (active)
- GI50 (RXF 393): 0.101 µM (active)
- GI50 (MDA-N): 0.155 µM (active)
- GI50 (IGROV-1): < 0.01 µM (active)
- GI50 (NCI-H522): < 0.01 µM (active)
- GI50 (MDA-MB-231): 0.05 µM (active)
- GI50 (UACC-257): 0.385 µM (active)
- GI50 (NCI-H23): 0.126 µM (active)
- GI50 (SF-295): 0.0495 µM (active)
- GI50 (OVCAR-8): < 0.01 µM (active)
- GI50 (U-251): < 0.01 µM (active)

Compound: CC(=O)OC[C@H]1On2nnnc2[C@H](OC(C)=O)[C@@H](OC(C)=O)[C@@H]1OC(C)=O
- GI50 (OVCAR-4): > 100 µM (inactive)
- GI50 (HCC 2998): > 100 µM (inactive)
- GI50 (MDA-MB-435): > 100 µM (inactive)
- GI50 (PC-3): > 100 µM (inactive)
- GI50 (SN12C): > 100 µM (inactive)
- GI50 (SF-539): > 100 µM (inactive)
- GI50 (UO-31): > 100 µM (inactive)
- GI50 (A549): > 100 µM (inactive)
- GI50 (Hs-578T): > 100 µM (inactive)
- GI50 (NCI/ADR-RES): 91.8 µM (inactive)
- GI50 (LOX IMVI): > 100 µM (inactive)
- GI50 (ACHN): > 100 µM (inactive)
- GI50 (HT-29): > 100 µM (inactive)
- GI50 (SR): > 100 µM (inactive)
- GI50 (DU-145): > 100 µM (inactive)
- GI50 (COLO 205): > 100 µM (inactive)
- GI50 (EKVX): > 100 µM (inactive)
- GI50 (HL-60): > 100 µM (inactive)
- GI50 (HOP-92): > 100 µM (inactive)
- GI50 (SF-268): > 100 µM (inactive)
- GI50 (CCRF-CEM): > 100 µM (inactive)
- GI50 (SK-MEL-2): > 100 µM (inactive)
- GI50 (SK-MEL-5): > 100 µM (inactive)
- GI50 (OVCAR-3): > 100 µM (inactive)
- GI50 (NCI-H226): > 100 µM (inactive)
- GI50 (A498): > 100 µM (inactive)
- GI50 (SW-620): > 100 µM (inactive)
- GI50 (HOP-62): > 100 µM (inactive)
- GI50 (BT-549): > 100 µM (inactive)
- GI50 (KM12): > 100 µM (inactive)
- GI50 (HCT-116): > 100 µM (inactive)
- GI50 (RPMI-8226): > 100 µM (inactive)
- GI50 (786-0): > 100 µM (inactive)
- GI50 (OVCAR-5): > 100 µM (inactive)
- GI50 (MCF7): > 100 µM (inactive)
- GI50 (NCI-H460): > 100 µM (inactive)
- GI50 (HCT-15): > 100 µM
- GI50 (UACC-62): > 100 µM (inactive)
- GI50 (TK-10): 31 µM (inactive)
- GI50 (K562): > 100 µM (inactive)
- GI50 (SK-OV-3): > 100 µM (inactive)
- GI50 (CAKI-1): > 100 µM (inactive)
- GI50 (SNB-75): > 100 µM (inactive)
- GI50 (MOLT-4): > 100 µM (inactive)
- GI50 (Malme-3M): > 100 µM (inactive)
- GI50 (T47D): > 100 µM (inactive)
- GI50 (SK-MEL-28): > 100 µM (inactive)
- GI50 (RXF 393): > 100 µM (inactive)
- GI50 (MDA-N): > 100 µM (inactive)
- GI50 (IGROV-1): > 100 µM (inactive)
- GI50 (NCI-H522): > 100 µM (inactive)
- GI50 (MDA-MB-231): > 100 µM (inactive)
- GI50 (UACC-257): > 100 µM (inactive)
- GI50 (NCI-H23): > 100 µM (inactive)
- GI50 (SF-295): > 100 µM (inactive)
- GI50 (OVCAR-8): > 100 µM (inactive)
- GI50 (U-251): > 100 µM (inactive)

Compound: CC(C)OC(=S)Nc1ccc(Cl)c(/C=N/OC(C)(C)C)c1
- GI50 (OVCAR-4): 18.1 µM (inactive)
- GI50 (HCC 2998): 19.6 µM (inactive)
- GI50 (MDA-MB-435): 18 µM (inactive)
- GI50 (PC-3): 20.1 µM (inactive)
- GI50 (SN12C): 16.7 µM (inactive)
- GI50 (SF-539): 15.5 µM (inactive)
- GI50 (UO-31): 13.9 µM (inactive)
- GI50 (A549): 16.9 µM (inactive)
- GI50 (Hs-578T): 16.6 µM (inactive)
- GI50 (NCI/ADR-RES): 11.9 µM (inactive)
- GI50 (LOX IMVI): 17.1 µM (inactive)
- GI50 (ACHN): 15.1 µM (inactive)
- GI50 (HT-29): 14.4 µM (inactive)
- GI50 (SR): 20.4 µM (inactive)
- GI50 (DU-145): 13 µM (inactive)
- GI50 (COLO 205): 17.1 µM (inactive)
- GI50 (EKVX): 15.4 µM (inactive)
- GI50 (HL-60): 16.4 µM (inactive)
- GI50 (M14): 19.9 µM (inactive)
- GI50 (HOP-92): 12.2 µM (inactive)
- GI50 (SF-268): 19.3 µM (inactive)
- GI50 (CCRF-CEM): 15.9 µM (inactive)
- GI50 (SK-MEL-2): 18.5 µM (inactive)
- GI50 (SNB-19): 20.7 µM (inactive)
- GI50 (SK-MEL-5): 16.2 µM (inactive)
- GI50 (OVCAR-3): 18.5 µM (inactive)
- GI50 (NCI-H226): 17.9 µM (inactive)
- GI50 (A498): 12.6 µM (inactive)
- GI50 (SW-620): 16.6 µM (inactive)
- GI50 (HOP-62): 19.5 µM (inactive)
- GI50 (BT-549): 18.5 µM (inactive)
- GI50 (KM12): 12.5 µM (inactive)
- GI50 (HCT-116): 15.4 µM (inactive)
- GI50 (RPMI-8226): 18.1 µM (inactive)
- GI50 (786-0): 16.7 µM (inactive)
- GI50 (OVCAR-5): 16 µM (inactive)
- GI50 (MCF7): 22.9 µM (inactive)
- GI50 (NCI-H460): 17.4 µM (inactive)
- GI50 (HCT-15): 16.6 µM
- GI50 (UACC-62): 16.4 µM (inactive)
- GI50 (TK-10): 12.4 µM (inactive)
- GI50 (K562): 20 µM (inactive)
- GI50 (SK-OV-3): 19.8 µM (inactive)
- GI50 (CAKI-1): 15.1 µM (inactive)
- GI50 (SNB-75): 23.5 µM (inactive)
- GI50 (MOLT-4): 15.6 µM (inactive)
- GI50 (Malme-3M): 16.7 µM (inactive)
- GI50 (T47D): 15.7 µM (inactive)
- GI50 (SK-MEL-28): 21.7 µM (inactive)
- GI50 (RXF 393): 14.5 µM (inactive)
- GI50 (MDA-N): 22.9 µM (inactive)
- GI50 (IGROV-1): 17.5 µM (inactive)
- GI50 (NCI-H522): 15.7 µM (inactive)
- GI50 (MDA-MB-231): 14.9 µM (inactive)
- GI50 (UACC-257): 18.2 µM (inactive)
- GI50 (NCI-H23): 18.5 µM (inactive)
- GI50 (SF-295): 13.5 µM (inactive)
- GI50 (OVCAR-8): 12.3 µM (inactive)
- GI50 (U-251): 17.1 µM (inactive)
